Measured values as given in paper PMC7156458, “Synthetic biology based construction of biological activity-related library of fungal decalin-containing diterpenoid pyrones” (Nature Communications, 2020).

Target: Aβ42 (Homo sapiens, UniProt P05067)
Assay: Th-T (thioflavin-T) assay of Aβ42 aggregation
Assay type: biochemical
Conditions: for Th-T fluorescence of Aβ42 (sheet Fig. 7a), mean of three wells: head suffix _50 (concentration 50); for Th-T assay plate reading, mean of three wells (Supplementary Fig. 47): source data, Ab alone and No Ab as controls; for Th-T fluorescence, mean of three wells: Supplementary Fig. 47 source data

Sequence of Aβ42 (P05067 672-713): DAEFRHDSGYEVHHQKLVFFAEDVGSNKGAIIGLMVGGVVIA

## C=C1CCC2C(C)(CCC=C(C)C)C(O)CCC2(C)C1Cc1c(OC)oc(CO)c(C(=O)OC)c1=O (stereo not drawn) [Compound 13]
Reading M73
  Th-T fluorescence of Aβ42 (sheet Fig. 7a), mean of three wells: 0.4729
Reading M74
  Th-T fluorescence of Aβ42 (sheet Fig. 7a), mean of three wells: 0.4696
Reading M75
  Th-T fluorescence of Aβ42 (sheet Fig. 7a), mean of three wells: 0.4709
Reading M76
  Th-T fluorescence of Aβ42 (sheet Fig. 7a), mean of three wells: 0.4704
Reading M77
  Th-T fluorescence of Aβ42 (sheet Fig. 7a), mean of three wells: 0.4733
Reading M78
  Th-T fluorescence of Aβ42 (sheet Fig. 7a), mean of three wells: 0.4716
Reading M79
  Th-T fluorescence of Aβ42 (sheet Fig. 7a), mean of three wells: 0.4696
Reading M80
  Th-T fluorescence of Aβ42 (sheet Fig. 7a), mean of three wells: 0.4702
Reading M81
  Th-T fluorescence of Aβ42 (sheet Fig. 7a), mean of three wells: 0.4727
Reading M82
  Th-T fluorescence of Aβ42 (sheet Fig. 7a), mean of three wells: 0.4723
Reading M83
  Th-T fluorescence of Aβ42 (sheet Fig. 7a), mean of three wells: 0.4714
Reading M84
  Th-T fluorescence of Aβ42 (sheet Fig. 7a), mean of three wells: 0.4716
Measurement M1
  Th-T assay plate reading, mean of three wells (Supplementary Fig. 47): 0.2585
Measurement M2
  Th-T assay plate reading, mean of three wells (Supplementary Fig. 47): 0.2393
Measurement M3
  Th-T assay plate reading, mean of three wells (Supplementary Fig. 47): 0.2328
Measurement M4
  Th-T assay plate reading, mean of three wells (Supplementary Fig. 47): 0.2253
Measurement M5
  Th-T assay plate reading, mean of three wells (Supplementary Fig. 47): 0.2121
Measurement M6
  Th-T assay plate reading, mean of three wells (Supplementary Fig. 47): 0.2004
Measurement M7
  Th-T assay plate reading, mean of three wells (Supplementary Fig. 47): 0.1938
Measurement M8
  Th-T assay plate reading, mean of three wells (Supplementary Fig. 47): 0.1852
Measurement M9
  Th-T assay plate reading, mean of three wells (Supplementary Fig. 47): 0.1809
Measurement M10
  Th-T assay plate reading, mean of three wells (Supplementary Fig. 47): 0.1743
Measurement M11
  Th-T assay plate reading, mean of three wells (Supplementary Fig. 47): 0.1726
Measurement M12
  Th-T assay plate reading, mean of three wells (Supplementary Fig. 47): 0.1685
Measurement M13
  Th-T assay plate reading, mean of three wells (Supplementary Fig. 47): 0.1699
Measurement M14
  Th-T assay plate reading, mean of three wells (Supplementary Fig. 47): 0.1695
Measurement M15
  Th-T assay plate reading, mean of three wells (Supplementary Fig. 47): 0.1669
Measurement M16
  Th-T assay plate reading, mean of three wells (Supplementary Fig. 47): 0.1721
Reading M107, compound at 10 (head suffix _10)
  Th-T fluorescence, mean of three wells (Fig. 7a): 1.546
Reading M107, compound at 20 (head suffix _20)
  Th-T fluorescence, mean of three wells (Fig. 7a): 1.033
Reading M107, compound at 50 (head suffix _50)
  Th-T fluorescence, mean of three wells (Fig. 7a): 0.4755
Reading M108, compound at 10 (head suffix _10)
  Th-T fluorescence, mean of three wells (Fig. 7a): 1.544
Reading M108, compound at 20 (head suffix _20)
  Th-T fluorescence, mean of three wells (Fig. 7a): 1.036
Reading M108, compound at 50 (head suffix _50)
  Th-T fluorescence, mean of three wells (Fig. 7a): 0.4722
Reading M109, compound at 10 (head suffix _10)
  Th-T fluorescence, mean of three wells (Fig. 7a): 1.548
Reading M109, compound at 20 (head suffix _20)
  Th-T fluorescence, mean of three wells (Fig. 7a): 1.038
Reading M109, compound at 50 (head suffix _50)
  Th-T fluorescence, mean of three wells (Fig. 7a): 0.476
Reading M110, compound at 10 (head suffix _10)
  Th-T fluorescence, mean of three wells (Fig. 7a): 1.549
Reading M110, compound at 20 (head suffix _20)
  Th-T fluorescence, mean of three wells (Fig. 7a): 1.043
Reading M110, compound at 50 (head suffix _50)
  Th-T fluorescence, mean of three wells (Fig. 7a): 0.4785
Reading M111, compound at 10 (head suffix _10)
  Th-T fluorescence, mean of three wells (Fig. 7a): 1.553
Reading M111, compound at 20 (head suffix _20)
  Th-T fluorescence, mean of three wells (Fig. 7a): 1.041
Reading M111, compound at 50 (head suffix _50)
  Th-T fluorescence, mean of three wells (Fig. 7a): 0.4751
Reading M112, compound at 10 (head suffix _10)
  Th-T fluorescence, mean of three wells (Fig. 7a): 1.549
Reading M112, compound at 20 (head suffix _20)
  Th-T fluorescence, mean of three wells (Fig. 7a): 1.035
Reading M112, compound at 50 (head suffix _50)
  Th-T fluorescence, mean of three wells (Fig. 7a): 0.4724
Reading M113, compound at 10 (head suffix _10)
  Th-T fluorescence, mean of three wells (Fig. 7a): 1.549
Reading M113, compound at 20 (head suffix _20)
  Th-T fluorescence, mean of three wells (Fig. 7a): 1.03
Reading M113, compound at 50 (head suffix _50)
  Th-T fluorescence, mean of three wells (Fig. 7a): 0.473
Reading M114, compound at 10 (head suffix _10)
  Th-T fluorescence, mean of three wells (Fig. 7a): 1.5404
Reading M114, compound at 20 (head suffix _20)
  Th-T fluorescence, mean of three wells (Fig. 7a): 1.03
Reading M114, compound at 50 (head suffix _50)
  Th-T fluorescence, mean of three wells (Fig. 7a): 0.4728
Reading M115, compound at 10 (head suffix _10)
  Th-T fluorescence, mean of three wells (Fig. 7a): 1.549
Reading M115, compound at 20 (head suffix _20)
  Th-T fluorescence, mean of three wells (Fig. 7a): 1.033
Reading M115, compound at 50 (head suffix _50)
  Th-T fluorescence, mean of three wells (Fig. 7a): 0.477
Reading M116, compound at 10 (head suffix _10)
  Th-T fluorescence, mean of three wells (Fig. 7a): 1.546
Reading M116, compound at 20 (head suffix _20)
  Th-T fluorescence, mean of three wells (Fig. 7a): 1.033
Reading M116, compound at 50 (head suffix _50)
  Th-T fluorescence, mean of three wells (Fig. 7a): 0.4778
Reading M117, compound at 10 (head suffix _10)
  Th-T fluorescence, mean of three wells (Fig. 7a): 1.5424
Reading M117, compound at 20 (head suffix _20)
  Th-T fluorescence, mean of three wells (Fig. 7a): 1.029
Reading M117, compound at 50 (head suffix _50)
  Th-T fluorescence, mean of three wells (Fig. 7a): 0.4747
Reading M118, compound at 10 (head suffix _10)
  Th-T fluorescence, mean of three wells (Fig. 7a): 1.549
Reading M118, compound at 20 (head suffix _20)
  Th-T fluorescence, mean of three wells (Fig. 7a): 1.031
Reading M118, compound at 50 (head suffix _50)
  Th-T fluorescence, mean of three wells (Fig. 7a): 0.4759
Reading M119, compound at 10 (head suffix _10)
  Th-T fluorescence, mean of three wells (Fig. 7a): 1.551
Reading M119, compound at 20 (head suffix _20)
  Th-T fluorescence, mean of three wells (Fig. 7a): 1.035
Reading M119, compound at 50 (head suffix _50)
  Th-T fluorescence, mean of three wells (Fig. 7a): 0.4763
Reading M120, compound at 10 (head suffix _10)
  Th-T fluorescence, mean of three wells (Fig. 7a): 1.5465
Reading M120, compound at 20 (head suffix _20)
  Th-T fluorescence, mean of three wells (Fig. 7a): 1.04
Reading M120, compound at 50 (head suffix _50)
  Th-T fluorescence, mean of three wells (Fig. 7a): 0.4773
Reading M121, compound at 10 (head suffix _10)
  Th-T fluorescence, mean of three wells (Fig. 7a): 1.546
Reading M121, compound at 20 (head suffix _20)
  Th-T fluorescence, mean of three wells (Fig. 7a): 1.029
Reading M121, compound at 50 (head suffix _50)
  Th-T fluorescence, mean of three wells (Fig. 7a): 0.4753
Reading M122, compound at 10 (head suffix _10)
  Th-T fluorescence, mean of three wells (Fig. 7a): 1.544
Reading M122, compound at 20 (head suffix _20)
  Th-T fluorescence, mean of three wells (Fig. 7a): 1.028
Reading M122, compound at 50 (head suffix _50)
  Th-T fluorescence, mean of three wells (Fig. 7a): 0.4755
Reading M123, compound at 10 (head suffix _10)
  Th-T fluorescence, mean of three wells (Fig. 7a): 1.5409
Reading M123, compound at 20 (head suffix _20)
  Th-T fluorescence, mean of three wells (Fig. 7a): 1.032
Reading M123, compound at 50 (head suffix _50)
  Th-T fluorescence, mean of three wells (Fig. 7a): 0.4791
Reading M124, compound at 10 (head suffix _10)
  Th-T fluorescence, mean of three wells (Fig. 7a): 1.548
Reading M124, compound at 20 (head suffix _20)
  Th-T fluorescence, mean of three wells (Fig. 7a): 1.037
Reading M124, compound at 50 (head suffix _50)
  Th-T fluorescence, mean of three wells (Fig. 7a): 0.4785
Reading M125, compound at 10 (head suffix _10)
  Th-T fluorescence, mean of three wells (Fig. 7a): 1.541
Reading M125, compound at 20 (head suffix _20)
  Th-T fluorescence, mean of three wells (Fig. 7a): 1.031
Reading M125, compound at 50 (head suffix _50)
  Th-T fluorescence, mean of three wells (Fig. 7a): 0.4776
Reading M126, compound at 10 (head suffix _10)
  Th-T fluorescence, mean of three wells (Fig. 7a): 1.541
Reading M126, compound at 20 (head suffix _20)
  Th-T fluorescence, mean of three wells (Fig. 7a): 1.031
Reading M126, compound at 50 (head suffix _50)
  Th-T fluorescence, mean of three wells (Fig. 7a): 0.4736
Reading M127, compound at 10 (head suffix _10)
  Th-T fluorescence, mean of three wells (Fig. 7a): 1.546
Reading M127, compound at 20 (head suffix _20)
  Th-T fluorescence, mean of three wells (Fig. 7a): 1.033
Reading M127, compound at 50 (head suffix _50)
  Th-T fluorescence, mean of three wells (Fig. 7a): 0.4763
Reading M128, compound at 10 (head suffix _10)
  Th-T fluorescence, mean of three wells (Fig. 7a): 1.55
Reading M128, compound at 20 (head suffix _20)
  Th-T fluorescence, mean of three wells (Fig. 7a): 1.029
Reading M128, compound at 50 (head suffix _50)
  Th-T fluorescence, mean of three wells (Fig. 7a): 0.4748
time-course reading M97
  Th-T fluorescence, mean of three wells: 1.044
time-course reading M98
  Th-T fluorescence, mean of three wells: 1.046
time-course reading M99
  Th-T fluorescence, mean of three wells: 1.04
time-course reading M100
  Th-T fluorescence, mean of three wells: 1.04
time-course reading M101
  Th-T fluorescence, mean of three wells: 1.043
time-course reading M102
  Th-T fluorescence, mean of three wells: 1.042
time-course reading M103
  Th-T fluorescence, mean of three wells: 1.041
time-course reading M104
  Th-T fluorescence, mean of three wells: 1.042
time-course reading M105
  Th-T fluorescence, mean of three wells: 1.041
time-course reading M106
  Th-T fluorescence, mean of three wells: 1.044
time-course reading M107
  Th-T fluorescence, mean of three wells: 1.043
time-course reading M108
  Th-T fluorescence, mean of three wells: 1.038
time-course reading M109
  Th-T fluorescence, mean of three wells: 1.039
time-course reading M110
  Th-T fluorescence, mean of three wells: 1.044
time-course reading M111
  Th-T fluorescence, mean of three wells: 1.042
time-course reading M112
  Th-T fluorescence, mean of three wells: 1.039
time-course reading M113
  Th-T fluorescence, mean of three wells: 1.042
time-course reading M114
  Th-T fluorescence, mean of three wells: 1.037
time-course reading M115
  Th-T fluorescence, mean of three wells: 1.041
time-course reading M116
  Th-T fluorescence, mean of three wells: 1.037
